Laboratory results reported in article PMC12040169 (PLOS Biology, 2025).

test: in vitro; settings: human, hela cells, % viability

Going from `COc1ccc(Cl)cc1N1CCN(CCN2CCCCC2)CC1` [CBK126445] to `COc1ccc(Cl)cc1N1CCN(CCCCC2NC(=O)NC2=O)CC1` (stereo not drawn) [CBK126448], the viability at 28.5 h, 10 µM falls from 100% to 89.4%.

Compared with `COc1cccc(CN2CCN(CCc3ccccc3)CC2)c1` [CBK126454], `Cc1nc(CN2CCN(CCc3ccccc3)CC2)cs1` [CBK126457] is lower in viability at 28.5 h, 10 µM: 90.5% for the first, 87.6% for the second.

Going from `COc1ccc(CN2CCCc3ccccc32)cc1` [CBK126458] to `CCNC(=O)N1CC2(CCN(Cc3ccc(OC(F)(F)F)cc3)CC2)c2ccccc21` [CBK126688], the viability at 28.5 h, 10 µM rises from 95.6% to 115%.

Compared with `CCOC(=O)CN(Cc1ccccc1)Cc1cccc(OC)c1` [CBK126459], `OCCN1CC2(CCN(Cc3cccc(Oc4ccccc4)c3)CC2)c2ccccc21` [CBK131528] is lower in viability at 28.5 h, 10 µM: 96.4% for the first, 88.7% for the second.

First: O=[N+]([O-])c1cccc(-c2ccc(OC3CCNCC3)cc2)c1 [CBK126465T]
Second: Nc1cccc(-c2ccc(OC3CCNCC3)cc2)c1 [CBK126959T]
The viability at 28.5 h, 10 µM of the first is higher: 98.8% for the first, 83.9% for the second.

Compared with `CCc1nnc(NS(=O)(=O)c2ccc(NCc3cc(Cl)cc(Cl)c3O)cc2)s1` [CBK126494], `CSc1cc(-c2ccc(Cl)cc2)c(C(=O)O)s1` [CBK126740] is lower in viability at 28.5 h, 10 µM: 112% for the first, 80.3% for the second.

Compared with `COc1ccc(CCNC(=O)c2cccc(-c3ccc(OC4CCNCC4)cc3)n2)cc1OC` [CBK126548T], `COc1ccc(Nc2nc(-c3cccnc3)cs2)c(OC)c1` [CBK126814] is higher in viability at 28.5 h, 10 µM: 91.7% for the first, 92.6% for the second.

First: CCC1(CC)OC(NC2CCCc3ccccc32)=NC1=O (stereo not drawn) [CBK126555]
Second: CCC1(CC)OC(N[C@@H](CO)c2ccccc2)=NC1=O [CBK126756]
The viability at 28.5 h, 10 µM of the first is higher: 99.1% for the first, 92.8% for the second.

First: CCC1(CC)OC(N[C@@H](C)c2ccc(Br)cc2)=NC1=O [CBK126665]
Second: CCC1(CC)OC(N[C@@H](C)c2ccc(Cl)cc2)=NC1=O [CBK126666]
The viability at 28.5 h, 10 µM of the first is higher: 102% for the first, 93.2% for the second.

Compared with `COc1cc(CN2CCC3(CC2)CN(S(C)(=O)=O)c2ccccc23)cc(OC)c1OC` [CBK126669], `CCN1CC2(CCN(Cc3cc(OC)c(OC)c(OC)c3)CC2)c2ccccc21` [CBK131477] is lower in viability at 28.5 h, 10 µM: 100% for the first, 93.2% for the second.

First: CS(=O)(=O)N1CC2(CCN(Cc3cc(=O)[nH]c(=O)[nH]3)CC2)c2ccccc21 [CBK126679]
Second: O=C(CO)N1CC2(CCN(Cc3cc(=O)[nH]c(=O)[nH]3)CC2)c2ccccc21 [CBK131510]
The viability at 28.5 h, 10 µM of the first is lower: 103% for the first, 106% for the second.

Compared with `COc1ccc(OCCN2CCC3(CC2)CN(S(C)(=O)=O)c2ccccc23)cc1` [CBK126681], `COc1ccc(OCCN2CCC3(CC2)CN(C(=O)CO)c2ccccc23)cc1` [CBK131512] is higher in viability at 28.5 h, 10 µM: 95.5% for the first, 103% for the second.

First: CS(=O)(=O)N1CC2(CCN(CCCCC3NC(=O)NC3=O)CC2)c2ccccc21 (stereo not drawn) [CBK126684]
Second: CC(C)C(=O)N1CC2(CCN(CCCCC3NC(=O)NC3=O)CC2)c2ccccc21 (stereo not drawn) [CBK131471]
The viability at 28.5 h, 10 µM of the first is lower: 97.1% for the first, 111% for the second.

Going from `CN(C)C(=O)CN1CCC2(CC1)CN(S(C)(=O)=O)c1ccccc12` [CBK126686] to `Cc1nc(CN2CCC3(CC2)CN(S(C)(=O)=O)c2ccccc23)cs1` [CBK126687], the viability at 28.5 h, 10 µM falls from 97.7% to 96.3%.

Compared with `CCNC(=O)N1CC2(CCN(Cc3cc(OC)c(OC)c(OC)c3)CC2)c2ccccc21` [CBK126689], `COc1cc(CN2CCC3(CC2)CN(C(=O)CO)c2ccccc23)cc(OC)c1OC` [CBK131494] is lower in viability at 28.5 h, 10 µM: 96.5% for the first, 94% for the second.

First: CCNC(=O)N1CC2(CCN(Cc3ccc(Cl)c(Cl)c3)CC2)c2ccccc21 [CBK126690]
Second: CC(C)C(=O)N1CC2(CCN(Cc3ccc(Cl)c(Cl)c3)CC2)c2ccccc21 [CBK126715]
The viability at 28.5 h, 10 µM of the first is higher: 95.4% for the first, 94.7% for the second.

First: CCNC(=O)N1CC2(CCN(Cc3ccc4ccccc4c3)CC2)c2ccccc21 [CBK126696]
Second: CCNC(=O)N1CC2(CCN(Cc3csc(C)n3)CC2)c2ccccc21 [CBK126712]
The viability at 28.5 h, 10 µM of the first is lower: 90% for the first, 103% for the second.

Compared with `CCNC(=O)N1CC2(CCN(CC(N)=O)CC2)c2ccccc21` [CBK126701], `CCNC(=O)N1CC2(CCN(CCSC)CC2)c2ccccc21` [CBK126709] is higher in viability at 28.5 h, 10 µM: 95.3% for the first, 101% for the second.

Compared with `CCNC(=O)N1CC2(CCN(CCCCC3NC(=O)NC3=O)CC2)c2ccccc21` (stereo not drawn) [CBK126707], `O=C(CO)N1CC2(CCN(CCCn3c(=O)[nH]c4ccccc43)CC2)c2ccccc21` [CBK131506] is lower in viability at 28.5 h, 10 µM: 92.2% for the first, 91.9% for the second.

Going from `CC(C)C(=O)N1CC2(CCN(Cc3nc4ccccc4[nH]3)CC2)c2ccccc21` [CBK126719] to `CC(C)C(=O)N1CC2(CCN(Cc3ncc[nH]3)CC2)c2ccccc21` [CBK126731], the viability at 28.5 h, 10 µM falls from 110% to 109%.

Compared with `Cc1ccc(C(=O)O)c(NC(=O)c2ccccc2F)c1` [CBK126744], `CC1(C)Cc2c(sc(NC(=O)c3ccccc3Cl)c2C(=O)O)CO1` [CBK126806] is higher in viability at 28.5 h, 10 µM: 98.9% for the first, 99.4% for the second.

First: CN1CCN(C(=O)c2ccc(-c3cncc(-c4ccc(O)cc4)n3)c(F)c2)CC1 [CBK126752]
Second: CC(=O)N1CCN(c2cncc(-c3ccc(O)cc3)n2)CC1 [CBK126948T]
The viability at 28.5 h, 10 µM of the first is higher: 100% for the first, 88.9% for the second.

Compared with `OCCN1CC2(CCN(Cc3ncc[nH]3)CC2)c2ccccc21` [CBK126763], `CSCCN1CCC2(CC1)CN(CCO)c1ccccc12` [CBK126771] is lower in viability at 28.5 h, 10 µM: 102% for the first, 94.6% for the second.

Compared with `OCCN1CC2(CCN(CCN3CCOCC3)CC2)c2ccccc21` [CBK126766], `CCN1CCC2(CC1)CN(CC(N)=O)c1ccccc12` [CBK126798] is lower in viability at 28.5 h, 10 µM: 91.4% for the first, 80.4% for the second.

Compared with `NC(=O)CN1CC2(CCN(Cc3cccc(C(F)(F)F)c3)CC2)c2ccccc21` [CBK126776], `NC(=O)CN1CC2(CCN(CCc3c[nH]c4ccccc34)CC2)c2ccccc21` [CBK126784] is higher in viability at 28.5 h, 10 µM: 93.1% for the first, 93.3% for the second.

Going from `NC(=O)CN1CCC2(CC1)CN(CC(N)=O)c1ccccc12` [CBK126789] to `CSCCN1CCC2(CC1)CN(C(=O)C(C)C)c1ccccc12` [CBK131473], the viability at 28.5 h, 10 µM rises from 100% to 101%.

First: O=S(=O)(c1ccc(-c2cncc(-c3ccc(O)cc3)n2)cc1F)N1CCOCC1 [CBK126903]
Second: O=C(N1CCOCC1)N1CCN(c2cncc(-c3ccc(O)cc3)n2)CC1 [CBK126946T]
The viability at 28.5 h, 10 µM of the first is lower: 94.3% for the first, 96.6% for the second.

First: Cc1ccc2nc(C)cc(NCCO)c2c1 [CBK126909]
Second: CCCCc1c(C)nc2ccc(Br)cc2c1SCCC(=O)O [CBK126915]
The viability at 28.5 h, 10 µM of the first is higher: 104% for the first, 93.4% for the second.

First: O=C(O)CSc1ccc(Br)c2cccc(C(=O)O)c12 [CBK126919]
Second: O=C(O)CCNc1ncnc2ccccc12 [CBK126920]
The viability at 28.5 h, 10 µM of the first is lower: 99.2% for the first, 99.4% for the second.

First: CN(C)CCCNC(=O)C1CCN(c2cncc(-c3ccc(O)cc3)n2)CC1 [CBK126929T]
Second: Cc1nc(CN2CCC3(CC2)CN(C(=O)CO)c2ccccc23)cs1 [CBK131523]
The viability at 28.5 h, 10 µM of the first is higher: 94.1% for the first, 93.5% for the second.

Compared with `CC(C)n1c(SCC(=O)Nc2nc(C(C)(C)C)cs2)nc2c1c(=O)n(C)c(=O)n2C` [CBK127417], `Cc1nc(CN2CCC3(CC2)CN(C(=O)C(C)C)c2ccccc23)cs1` [CBK131476] is higher in viability at 28.5 h, 10 µM: 104% for the first, 108% for the second.

Compared with `O=C(c1ccc(OC(F)(F)F)cc1)N1CCC2(CCN(C(=O)c3cc(F)c(F)cc3F)C2)C1` (stereo not drawn) [CBK131384], `NS(=O)(=O)c1ccc(C(=O)N2CCC3(CCN(C(=O)c4cc(F)c(F)cc4F)C3)C2)cc1` (stereo not drawn) [CBK131385] is lower in viability at 28.5 h, 10 µM: 108% for the first, 104% for the second.

First: O=C(c1cc(F)c(F)cc1F)N1CCC2(CCN(C(=O)C3COc4ccccc4O3)C2)C1 (stereo not drawn) [CBK131390]
Second: O=C(c1ccc2c(c1)OCCO2)N1CCC2(CCN(C(=O)c3cc(F)c(F)cc3F)C2)C1 (stereo not drawn) [CBK131410]
The viability at 28.5 h, 10 µM of the first is higher: 107% for the first, 98.2% for the second.

First: O=C(c1ccc2ncccc2c1)N1CCC2(CCN(C(=O)c3cc(F)c(F)cc3F)C2)C1 (stereo not drawn) [CBK131391]
Second: O=C(c1ccc2[nH]c(=O)[nH]c2c1)N1CCCC2(CCN(C(=O)c3cc(F)c(F)cc3F)C2)C1 (stereo not drawn) [CBK131566]
The viability at 28.5 h, 10 µM of the first is lower: 91% for the first, 106% for the second.

Going from `NS(=O)(=O)c1ccc(C(=O)N2CCC3(CCN(C(=O)Cc4c[nH]c5ccccc45)C3)C2)cc1` (stereo not drawn) [CBK131425] to `O=C(Cc1c[nH]c2ccccc12)N1CCC2(CCN(C(=O)c3cccnc3)C2)C1` (stereo not drawn) [CBK131453], the viability at 28.5 h, 10 µM falls from 100% to 80.6%.

Going from `O=C(Cc1c[nH]c2ccccc12)N1CCC2(CCN(C(=O)c3ccc4[nH]c(=O)[nH]c4c3)C2)C1` (stereo not drawn) [CBK131452] to `N#Cc1cccc(C(=O)N2CCCC3(CCN(C(=O)Cc4c[nH]c5ccccc45)C3)C2)c1` (stereo not drawn) [CBK131581], the viability at 28.5 h, 10 µM rises from 90.8% to 93.4%.

First: CCN1CC2(CCN(CCCn3c(=O)[nH]c4ccccc43)CC2)c2ccccc21 [CBK131483]
Second: O=C(CO)N1CC2(CCN(CCc3c[nH]c4ccccc34)CC2)c2ccccc21 [CBK131503]
The viability at 28.5 h, 10 µM of the first is lower: 93.7% for the first, 98.5% for the second.

Compared with `O=C(CO)N1CC2(CCN(Cc3ccc(OC(F)(F)F)cc3)CC2)c2ccccc21` [CBK131493], `O=C(CN1CCC2(CC1)CN(C(=O)CO)c1ccccc12)Nc1ccc(F)c(Cl)c1` [CBK131509] is lower in viability at 28.5 h, 10 µM: 106% for the first, 92.3% for the second.

Going from `O=C(CO)N1CC2(CCN(CCS(=O)(=O)c3ccccc3)CC2)c2ccccc21` [CBK131505] to `COc1cc(CN2CCC3(CC2)CN(CCO)c2ccccc23)cc(OC)c1OC` [CBK131524], the viability at 28.5 h, 10 µM falls from 97.9% to 94.9%.

Compared with `CSCCC(=O)N1CCCC2(CCN(C(=O)c3cc(F)c(F)cc3F)C2)C1` (stereo not drawn) [CBK131557], `O=C(c1cncnc1)N1CCCC2(CCN(C(=O)c3cc(F)c(F)cc3F)C2)C1` (stereo not drawn) [CBK131564] is higher in viability at 28.5 h, 10 µM: 93.7% for the first, 106% for the second.

Going from `Cc1ccc(S(=O)(=O)CC(=O)N2CCCC3(CCN(C(=O)c4cc(F)c(F)cc4F)C3)C2)cc1` (stereo not drawn) [CBK131558] to `COc1ccc2[nH]cc(CC(=O)N3CCCC4(CCN(C(=O)c5cc(F)c(F)cc5F)C4)C3)c2c1` (stereo not drawn) [CBK131562], the viability at 28.5 h, 10 µM falls from 99% to 88.6%.

`O=C(O)CCC(=O)N1CCCC2(CCN(C(=O)Cc3c[nH]c4ccccc34)C2)C1` (stereo not drawn) [CBK131572] gave a viability at 28.5 h, 10 µM of 91.2%.

same assay, conditions: human, hela cells, % viability, bulk resorufin, single well

Work on `O=C1NC(=O)C(=Cc2cccc(OCCOc3ccc([N+](=O)[O-])cc3)c2)C(=O)N1` [CBK126857] yielded a viability at 28.5 h, 10 µM of 95.7%.
